In a melting point compilation (Tetko et al.; mined from patent text by program, amines drawn as free bases though some values may be those of a salt):

Row | Compound | melting point
1 | CCN1C(=O)N(c2cc(OC)cc(OC)c2)Cc2cnc(S(C)=O)nc21 (stereo not given) | 167 to 169 °C
2 | O=C(C=Cc1ccc(C(F)(F)F)cc1)C=Cc1ccc(C(F)(F)F)cc1 | 148 to 150 °C
3 | NC(CNCCO)(CC(=O)O)c1ccccc1 (stereo not given) | 140 to 143 °C
4 | O=S1(=O)NCC2(OCCO2)c2ccc3ccccc3c21 | 202 to 204 °C
5 | CC(=O)Nc1nc(CCc2ccc(N)cc2)c(C(=O)NCc2ccccc2)s1 | 200 to 201 °C
6 | COC(=O)C1Oc2ccc(Cl)cc2C(Cc2ccccc2)(c2ccccc2)O1 (stereo not given) | 110 °C
7 | COc1ccc2c(c1)CCc1cc(=O)[nH]nc1-2 | 246 to 248 °C
8 | OC1CSC(Oc2cccc(-c3ncccc3F)c2)C(O)C1O (stereo not given) | 150 °C
9 | COc1ccc(Nc2nnc(Cc3ccncc3)c3ccccc23)cc1 | 223 to 224 °C
10 | COC(=O)C1CCc2cc(OCc3nc(-c4ccccc4)oc3C)ccc2C1O (stereo not given) | 146 to 147 °C
11 | CS(=O)(=O)c1cccc(NC(=O)c2cnn3c(C(F)(F)F)cc(-c4ccc(Cl)cc4)nc23)c1 | 305 °C
12 | COc1nccc(-c2c(-c3ccc(F)cc3)ncn2[C@H]2CC[C@H](O)CC2)n1 | 188 to 190 °C
13 | CC(C)(NC=O)c1cccc(C(F)(F)C(F)(F)c2ccccc2)c1 | 90 to 95 °C
14 | O=C1CNC(=O)N1Cc1ccc2ccn(C3CCN(CCc4ccc(F)cc4)CC3)c2c1 | 156 to 157 °C
15 | ClCc1nc2cc(Br)ccc2o1 | 63 to 65 °C
16 | COC(=O)CCC(=O)NS(=O)(=O)c1ccc([N+](=O)[O-])cc1 | 156 °C
17 | COc1ccc(C2=NN(C3CCSCC3)C(=O)[C@H]3CC=CC[C@@H]23)cc1OC (relative stereo) | 140 to 141 °C
18 | CC(C)(C)NCC(O)COc1ccccc1-c1nc(C(F)(F)F)c[nH]1 (stereo not given) | 105 to 107 °C
19 | Oc1ccccc1C=NC1=NN(c2cnc3ccccc3c2)CC1 | 288 to 289 °C
20 | CC#CCOc1ccc(S(=O)(=O)CNCC(C(=O)NO)N2CCN(S(C)(=O)=O)CC2)cc1 (stereo not given) | 86 °C
21 | CC(C)NC(=O)Nc1ccnc(Cl)c1 | 142 to 146 °C
22 | CC(=O)N1CCN(c2ccc(N=CNc3cc(Cl)cc(C(=Cc4ccccc4Cl)C(N)=O)c3)cc2)CC1 | 259 to 260 °C
23 | N#CCCNC(=O)c1cccc(-c2ccc3c(c2)N(Cc2ccc(Cl)c(Cl)c2)CC3)c1 | 135 to 136 °C
24 | CCc1nc(-n2ccnc2)c2ccccc2c1Cl | 115 °C

Row | Compound | melting point
25 | Oc1cccc2c1ccn2CCCCCc1ccccc1 | 109 to 110 °C
26 | CCCCN1C(=O)C2=C(c3ccc(Cl)cc3)N(CCCC)C(=O)C2=C1c1ccc(Cl)cc1 | 176 to 177 °C
27 | CCOC(=O)/C(CCO[N+](=O)[O-])=C(\c1ccc(Cl)cc1)c1ccc(S(C)(=O)=O)cc1 | 127 to 128 °C
28 | Oc1c(Br)cnc2ccccc12 | 286 to 287 °C
29 | COc1cc(OC)c2cc(-c3ccc(F)cc3)oc2c1 | 142 to 143 °C
30 | O=[N+]([O-])CC(SC(=S)N1CCCCC1)c1ccccc1 (stereo not given) | 86 to 90.5 °C
31 | Cn1cc(C=O)c(-c2ccoc2)n1 | 77 to 78 °C
32 | C(=C1CCNCC1)c1ccc(C2=NCCO2)cc1 | 110 °C
33 | CN1C(C)(C#N)CCC1(C)C#N (stereo not given) | 81 to 83 °C
34 | N#Cc1ccc(N(Cc2ccc(OCc3ccccc3)cc2)n2cncn2)cc1-c1ccccc1 | 112 to 113 °C
35 | Cc1cc(C)c2ncc(NC(=O)c3cc(C)c(O)c(C)c3C)c(-c3ccccc3Cl)c2c1 | 261 to 264 °C
36 | Nc1cnn(-c2cccc(C(F)(F)F)c2)c(=O)c1-c1cccc(C(F)(F)F)c1 | 68 to 70 °C
37 | C=CCCCCCCOc1ccc(CCC(N)(CO)CO)cc1 | 95 to 98 °C
38 | COc1cc2cc3ncc(C#N)c(Nc4ccc(Oc5ccccc5)cc4)c3cc2cc1OC | > 265 °C
39 | COc1cccc2c1nc(C(F)F)n2-c1nc(-c2cncnc2)cc(N2CCOCC2)n1 | 222 to 224 °C
40 | CNS(=O)(=O)Cc1ccc2[nH]cc(CC(=O)O)c2c1 | 126 to 133 °C
41 | CN(C)C(=O)c1cccnc1S(=O)(=O)Br | 108 to 111 °C
42 | CCOCc1nc2c(N)nc3ccccc3c2n1CC1(OCCS(C)(=O)=O)CCCC1 | 163 to 165 °C
43 | COc1cc(C)c(NS(C)(=O)=O)cc1C(=O)NCC(Cl)CCCCl (stereo not given) | 132 °C
44 | O=S(=O)(c1ccccc1)c1ncc(Cl)cn1 | 103 °C
45 | CCC(Oc1cccc(C(F)(F)F)c1)C(=O)NCc1ccccc1Cl (stereo not given) | 66 to 68 °C
46 | COc1nc2ccccc2cc1NC(=O)N1CCN(c2cc(F)cc(F)c2)CC1 | 158 to 159 °C
47 | O=c1cc(CN2CCCC2)[nH]c(=O)[nH]1 | 176 to 178 °C
48 | COc1cc(C)nc(NC(=O)NS(=O)(=O)c2ccccc2N)n1 | 210 to 215 °C

Row | Compound | melting point
49 | O=C(O)CCc1cc2nc(C(F)(F)F)ccc2n1S(=O)(=O)c1cccc2cccnc12 | 216 to 217 °C
50 | COc1ccc(-c2ccc(OC(CCC3=CCCCC3)C(=O)O)cc2)cc1 (stereo not given) | 152 to 154 °C
51 | CCOC(C)c1ccc(OCCCN2CCC(c3noc4cc(F)ccc34)CC2)c(OC)c1 (stereo not given) | 139 °C
52 | C=Cc1cccc(-n2ncc(-c3ccc(S(C)(=O)=O)cc3)c(-c3ccc(F)cc3)c2=O)c1 | 182 to 183 °C
53 | CCCNC(=O)C(C)Cc1ccc2c(c1)c(Cc1ccc(C(=O)NS(=O)(=O)c3ccccc3C)cc1OC)cn2CCC (stereo not given) | 95 to 113 °C
54 | COc1ccc(-n2nc(C#N)cc2-c2ccc(S(C)(=O)=O)cc2)cc1F | 192 to 193 °C
55 | O=C(Nc1cccc(O)c1)O[C@@H]1CN=C(c2ccccc2)O[C@H]1c1ccccc1 (racemic) | 170 °C
56 | FC(F)(F)c1cc(CO[C@@H]2CCCN(Cc3nc4ccccc4[nH]3)[C@@H]2c2ccccc2)cc(C(F)(F)F)c1 (relative stereo) | 152 to 153 °C
57 | C=C(C(=O)c1cc(OC)c(OC)c(-c2cccs2)c1)c1ccc(C(=O)O)cc1 | 159 to 160 °C
58 | CCOC(=O)C1=C(C)N2CCCC2=C(C(C)=O)C1c1cccc([N+](=O)[O-])c1 (stereo not given) | 161 °C
59 | CN1CCN(c2cc3c(cc2F)c(=O)c(C(=O)O)cn3C2CC2)CC1c1ccco1 (stereo not given) | 122 to 124 °C
60 | CCC(=O)Nc1nc2cccc(C)c2c(=O)o1 | 108 to 109 °C
61 | Cc1cccc(-c2ccccc2)c1NC(=S)NC(=O)c1ccccc1 | 172 to 173 °C
62 | CCCC(=O)NCc1cccc2c1C(=O)N(C1CCC(=O)NC1=O)C2=O (stereo not given) | 121 to 123 °C
63 | CN(C)n1c(NN)nc2ccccc2c1=O | 125 to 127 °C
64 | O=C(NCO)c1cncc([N+](=O)[O-])c1 | 145 to 146 °C
65 | Cc1cc(C)c(O)c(CC(C)(C)CO)c1 | 117 °C
66 | O=c1c(CCCCc2cccnc2)cc2cccnc2n1-c1cccc([N+](=O)[O-])c1 | 184 to 185 °C
67 | CC12CCC(=O)C=C1CCC1C2CCC2(C)C(=CCC(=O)O)CCC12 (stereo not given) | 266 to 270 °C
68 | NC(=O)c1cc(NCc2c(F)c(F)c(C(F)(F)F)c(F)c2F)ccc1O | 143 to 145 °C
69 | O=C1C2C[C@@H](OCc3ccccc3)CN2C(=O)N1c1ccc([N+](=O)[O-])c2ccccc12 (stereo not given in full) | 120 to 122 °C
70 | CCCCCCCCNC(=O)NCc1ccc(O)c(OC)c1 | 90 to 92 °C
